target: T1, Endothelial lipase (EL) (Homo sapiens, UniProt Q9Y5X9); experiment: Endothelial lipase (EL) enzymatic assay with fluorescent substrate A10070 in DMPG vesicles; format: biochemical; details: conditioned media from HT-1080 cells overexpressing endogenous EL; 20 min preincubation at 37° C.
T1 construct: transformed by RAGE technology (Athersys) to overexpress endogenous EL; endogenous in cells; the conditioned medium served as the enzyme source
T1 sequence (Q9Y5X9 21-500): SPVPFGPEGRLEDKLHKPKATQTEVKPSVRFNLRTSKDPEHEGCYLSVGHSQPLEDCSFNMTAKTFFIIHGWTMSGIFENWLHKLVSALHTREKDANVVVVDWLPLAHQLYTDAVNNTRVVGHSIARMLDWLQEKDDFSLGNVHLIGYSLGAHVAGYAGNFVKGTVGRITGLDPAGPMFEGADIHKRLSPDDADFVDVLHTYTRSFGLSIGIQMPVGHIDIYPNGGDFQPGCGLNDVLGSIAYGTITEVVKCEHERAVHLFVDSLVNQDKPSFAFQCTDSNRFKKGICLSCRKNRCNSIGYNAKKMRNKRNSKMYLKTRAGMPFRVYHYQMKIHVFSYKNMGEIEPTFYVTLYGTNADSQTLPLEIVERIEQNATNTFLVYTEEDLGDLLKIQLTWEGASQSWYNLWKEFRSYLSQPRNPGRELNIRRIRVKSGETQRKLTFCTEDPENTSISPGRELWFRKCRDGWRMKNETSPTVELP
Description: Endothelial lipase activity was measured using a fluorescent substrate, A10070, (Invitrogen, CA) doped into an artificial vesicle containing DMPG (Avanti Polar Lipids) as the excipient. Vesicles were prepared by combining 285 μL of 1 mM DMPG in a 1:1 mixture of MeOH and CHCl3 with 15 μL of 1 mM A10070 in a 1:1 mixture of MeOH and CHCl3. The mixture was dried under nitrogen and resuspended in 150 μL of 50 mM HEPES pH 8.0 buffer containing 100 mM NaCl and 0.2 mM EDTA. The sample was allowed to sit at rt for 15 min and then was sonicated 3×4 mins on ice with a Branson Sonicator using duty cycle 1. This preparation provides vesicles with a mole fraction of 0.05 for the FRET substrate.
The enzymatic assay was measured using white, opaque 96-well half area plates. Each well contained 60 μL of assay buffer (50 mM HEPES pH 8.0, 50 mM NaCl and 1 mM CaCl2) and 2 ul of a DMSO solution containing compound of interest. Conditioned media obtained from HT-1080 cells, which were transformed by RAGE technology (Athersys) to overexpress endogenous EL, was added and the reaction was allowed to incubate for 20 min at 37° C. with gentle agitation. The reaction was started by the addition of 20 μL of a 1:4 dilution of vesicles. The final total reaction volume was 100 μL. The reaction rates were measured on a Gemini plate reader with an excitation wavelength of 488 nm and an emission of 530 nm. Readings were taken every 20 seconds for 10 min with agitation between each reading. The slope of the linear portion of the readout was used to calculate the rate of the reaction.

Compound | IC50 [nM]
N#CC(C(=O)NCC(=O)NC1CC1)c1nc2ccc(-c3ccc4c(c3)C(=O)NC4)cc2s1 (stereo not drawn) [Example 6, 2-cyano-N-[(cyclopropyl-carbamoyl)methyl]-2-[6-(3-oxo-2,3-dihydro-1H-isoindol-5-yl)-1,3-benzothiazol-2-yl] acetamide] | 259
N#CC(C(=O)NCC(=O)NC1CC1)c1nc2ncc(-c3cccc(C(=O)N4CCOCC4)c3)cc2s1 (stereo not drawn) [Example 22, 2-cyano-N-[(cyclopropyl-carbamoyl)methyl]-2-{6-[3-(morpholine-4-carbonyl)phenyl]-[1,3]thiazolo[4,5-b]pyridin-2-yl}acetamide] | 22
N#CC(C(=O)NCC(=O)NC1COC1)c1nc2ccc(-c3ccc(F)nc3)cc2s1 (stereo not drawn) [Example 17, 2-cyano-2-[6-(6-fluoropyridin-3-yl)-1,3-benzothiazol-2-yl]-N-{[(oxetan-3-yl)carbamoyl]methyl} acetamide] | 67
N#CC(C(=O)NCC(=O)NC1CC1)c1nc2ccc(-c3cccc(C(=O)N4CCCCC4)c3)cc2s1 (stereo not drawn) [Example 5, 2-cyano-N-[(cyclopropyl-carbamoyl)methyl]-2-{6-[3-(piperidine-1-carbonyl)phenyl]-1,3-benzothiazol-2-yl}acetamide] | 16
COCCNC(=O)c1ccc(-c2ccc3nc(C(C#N)C(=O)NCC(=O)NC4CC4)sc3c2)cc1 (stereo not drawn) [Example 12, 4-{2-[cyano ({[(cyclopropyl-carbamoyl)methyl]carbamoyl})methyl]-1,3-benzothiazol-6-yl}-N-(2-methoxyethyl) benzamide] | 16
N#CC(C(=O)NCC(=O)NC1CC1)c1nc2ccc(-c3ccc(C(=O)N4CCC4)cc3)cc2s1 (stereo not drawn) [Example 7, 2-{6-[4-(azetidine-1-carbonyl)phenyl]-1,3-benzothiazol-2-yl}-2-cyano-N-[(cyclopropyl-carbamoyl)methyl] acetamide] | 15
N#CC(C(=O)NCC(=O)NC1CC1)c1nc2ccc(-c3ccc(C(=O)N4CCOCC4)cc3)cc2s1 (stereo not drawn) [Example 14, 2-cyano-N-(2-(cyclopropylamino)-2-oxoethyl)-2-(6-(4-(morpholine-4-carbonyl)phenyl)benzo[d]thiazol-2-yl)acetamide] | 62
N#CC(C(=O)NCC(=O)NC1CC1)c1nc2ccc(-c3cccc(C(N)=O)c3)cc2s1 (stereo not drawn) [Example 9, 3-{2-[cyano ({[(cyclopropyl-carbamoyl)methyl]carbamoyl})methyl]-1,3-benzothiazol-6-yl} benzamide] | 399
Cn1ccc(-c2ccc3nc(C(C#N)C(=O)NCC(=O)NC4CC4)sc3c2)cc1=O (stereo not drawn) [Example 4, 2-cyano-N-[(cyclopropyl-carbamoyl)methyl]-2-[6-(1-methyl-2-oxo-1,2-dihydropyridin-4-yl)-1,3-benzothiazol-2-yl] acetamide] | > 10000
N#CC(C(=O)NCC(=O)NC1CC1)c1nc2cc(-c3ccccc3)c(F)cc2s1 (stereo not drawn) [Example 27, 2-cyano-N-[(cyclopropyl-carbamoyl)methyl]-2-(6-fluoro-5-phenyl-1,3-benzothiazol-2-yl)acetamide] | 13
N#CC(C(=O)NCC(=O)NC1CC1)c1nc2ccc(-c3ccc(NC(=O)OCc4ccccc4)cc3)cc2s1 (stereo not drawn) [Example 15, benzyl N-(4-{2-[cyano ({[(cyclopropyl-carbamoyl)methyl]carbamoyl})methyl]-1,3-benzothiazol-6-yl}phenyl) carbamate] | 1.4
N#CC(C(=O)NCC(=O)N1CCCC1)c1nc2ccc(-c3ccccc3)cc2s1 (stereo not drawn) [Example 18, 2-cyano-N-[2-oxo-2-(pyrrolidin-1-yl)ethyl]-2-(6-pheny1-1,3-benzothiazol-2-yl)acetamide] | 1320
N#CC(C(=O)NCC(=O)NC1CC1)c1nc2ccc(-c3ccc(C(N)=O)cc3)cc2s1 (stereo not drawn) [Example 11, 4-{2-[cyano ({[(cyclopropyl-carbamoyl)methyl]carbamoyl})methyl]-1,3-benzothiazol-6-yl} benzamide] | 26
CN1CCN(C(=O)c2cccc(-c3cc4nc(C(C#N)C(=O)NCC(=O)NC5CC5)sc4cc3F)c2)CC1 (stereo not drawn) [Example 29, 2-cyano-N-[(cyclopropyl-carbamoyl)methyl]-2-{6-fluoro-5-[3-(4-methylpiperazine-1-carbonyl)phenyl]-1,3-benzothiazol-2-yl}acetamide] | 1
N#CC(C(=O)NCC(=O)NC1CC1)c1nc2cc(-c3cccc(C(N)=O)c3)c(F)cc2s1 (stereo not drawn) [Example 26, 3-{2-[cyano({[(cyclopropylcarbamoyl)methyl]carbamoyl})methyl]-6-fluoro-1,3-benzothiazol-5-yl}benzamide] | 21
N#CC(C(=O)NCC(=O)NC1CC1)c1nc2ncc(-c3ccccc3)cc2s1 (stereo not drawn) [Example 21, 2-cyano-N-(2-(cyclopropylamino)-2-oxoethyl)-2-(6-phenylthiazolo[4,5-b]pyridin-2-yl)acetamide] | 13
N#CC(C(=O)NCC(=O)NC1CC1)c1nc2cc(-c3ccc(C(N)=O)cc3)c(F)cc2s1 (stereo not drawn) [Example 28, 4-{2-[cyano ({[(cyclopropyl-carbamoyl)methyl]carbamoyl})methyl]-6-fluoro-1,3-benzothiazol-5-yl}benzamide] | < 1
CN1CCN(C(=O)c2ccc(-c3cnc4nc(C(C#N)C(=O)NCC(=O)NC5CC5)sc4c3)cc2)CC1 (stereo not drawn) [Example 23, 2-cyano-N-[(cyclopropyl-carbamoyl)methyl]-2-{6-[4-(4-methylpiperazine-1-carbonyl)phenyl]-[1,3]thiazolo[4,5-6]pyridin-2-yl}acetamide] | 33
N#CC(C(=O)NCC(=O)NC1CC1)c1nc2ccc(-c3cccc(C(=O)N4CCOCC4)c3)cc2s1 (stereo not drawn) [Example 10, 2-cyano-N-[(cyclopropyl-carbamoyl)methyl]-2-{6-[3-(morpholine-4-carbonyl)phenyl]-1,3-benzothiazol-2-yl]acetamide] | 18
N#CC(C(=O)NCC(=O)NC1CC1)c1nc2ccc(-c3ccc(C(=O)N4CCCCC4)cc3)cc2s1 (stereo not drawn) [Example 13, 2-cyano-N-[(cyclopropyl-carbamoyl)methyl]-2-{6-[4-(piperidine-1-carbonyl)phenyl]-1,3-benzothiazol-2-yl} acetamide] | 11
N#CC(C(=O)NCC(=O)NC1CC1)c1nc2ccc(-c3ccc4c(c3)CNC4=O)cc2s1 (stereo not drawn) [Example 8, 2-cyano-N-[(cyclopropyl-carbamoyl)methyl]-2-[6-(1-oxo-2,3-dihydro-1H-isoindol-5-yl)-1,3-benzothiazol-2-yl]acetamide] | 5
CN1CCN(C(=O)c2ccc(-c3ccc4nc(C(C#N)C(=O)NCC(=O)NC5CC5)sc4c3)cc2)CC1 (stereo not drawn) [Example 20, 2-cyano-N-[(cyclopropyl-carbamoyl)methyl]-2-{6-[4-(4-methyl-piperazine-1-carbonyl)phenyl]-1,3-benzothiazol-2-yl} acetamide] | 130
COCCNC(=O)c1ccc(-c2cnc3nc(C(C#N)C(=O)NCC(=O)NC4CC4)sc3c2)cc1 (stereo not drawn) [Example 25, 4-{2-[cyano({[(cyclopropyl-carbamoyl)methyl]carbamoyl})methyl]-[1,3]thiazolo[4,5-b]pyridin-6-yl}-N-(2-methoxyethyl) benzamide] | 40
N#CC(C(=O)NCC(=O)NC1CC1)c1nc2ccc(-c3ccccc3)cc2s1 (stereo not drawn) [Example 1, 2-cyano-N-(2-(cyclopropylamino)-2-oxoethyl)-2-(6-phenylbenzo[d]thiazol-2-yl)acetamide] | 13
N#CC(C(=O)NCC(=O)NC1CC1)c1nc2ccc(-c3ccc(F)nc3)cc2s1 (stereo not drawn) [Example 16, 2-cyano-N-[(cyclopropyl-carbamoyl)methyl]-2-[6-(6-fluoropyridin-3-yl)-1,3-benzothiazol-2-yl] acetamide] | 172
N#CC(C(=O)NCC(=O)NC1CC1)c1nc2ncc(-c3ccc(C(N)=O)cc3)cc2s1 (stereo not drawn) [Example 24, 4-{2-[cyano({[(cyclopropyl-carbamoyl)methyl]carbamoyl})methyl]-[1,3]thiazolo[4,5-b]pyridin-6-yl}benzamide] | 31
CN1CCN(C(=O)c2ccc(-c3ccc4nc(C(C#N)C(=O)NCC(=O)NC5CCC5)sc4c3)cc2)CC1 (stereo not drawn) [Example 19, 2-cyano-N-[(cyclobutyl-carbamoyl)methyl]-2-{6-[4-(4-methyl-piperazine-1-carbonyl)phenyl]-1,3-benzothiazol-2-yl} acetamide] | 3140
